This is an account of results in patent US10273241B2 (President and Fellows of Harvard College, priority 2013, dated 2019).

The term Cmax denotes the maximum level reached in the sampled fluid or tissue. In general, IC50 refers to the concentration that inhibits the measured activity by half.

Data set [1] is described as follows: Human hepatocyte stability assay. Format: in vitro ADME. The following applies: 1 μM. The method, then: Test compounds were incubated in duplicate with cryopreserved hepatocytes at 37° C. The cells were thawed; viable cells counted, and equilibrated according to the supplier's directions. After 30 min equilibration at 37° C. with gentle agitation, the test compounds were added into the cells to give the desired final concentration of 1 μM. The cell suspension was incubated at 37° C. as above. At the indicated times, samples were removed and mixed with an equal volume of ice-cold Stop Solution (acetonitrile containing internal standards). Stopped reactions were incubated at least ten minutes on ice, and an additional volume of water was added. The samples were centrifuged to remove precipitated protein, and the supernatants were analyzed by LC/MS/MS to quantitate the remaining parent. Data were converted to % remaining by dividing by the time zero concentration value. Data were fit to a first-order decay model to determine half-life. From a plot of log (ln) peak area against time, the slope of the line was determined. Subsequently, half-life and intrinsic clearance were calculated using the equations below: Elimination rate constant (k)=(−slope); Half-life (T1/2) min=0.693/k; Intrinsic Clearance (CLint) (ml/min/million cells)=(V×0.693)/T1/2; V=incubation volume ml/number of cells.

For a further data set, the system named is K562. Put plainly: Cell growth assay, K562 cell line. The class given is cell-based, human. The following applies: day 10, lack of activity is taken as evidence of on-target selectivity. The method, then: (§1) For all other cell lines, compounds were serially diluted in medium and dispensed in triplicate in 96-well plates (0.1% DMSO final for assay) followed by the addition of exponentially growing cells at densities ranging from 5,000 to 30,000 cells/well. Cells were also seeded into 2 additional control wells containing vehicle (0.1% DMSO). After 3 days, the number of viable cells in one of the control wells was counted by hemocytometer or MOXI Z (Orflo) and an equal volume of cells for all wells were split-back with fresh vehicle/compounds such that the resulting seeding density for the control well was 5,000-30,000 cells/well, matching the initial seeding density in that well. This procedure was repeated on day 7 and day 10. % growth was calculated as % growth=100×(total estimated cell number in well−day 0 starting cell number)/(total average vehicle estimated cell number−day 0 starting cell number). To determine the estimated cell number in each well, cells that were counted in the control well were diluted 3-fold for an 8-point dilution series, and transferred to 384-well plates in duplicate, 20 μL per well. Cells in all other wells were diluted 4-fold and transferred to 384-well plates in duplicate, 20 μL per well. 20 μL of CellTiter-Glo (Promega) was subsequently added to all wells and luminescence was detected using a SPECTRAmax M3. The control well dilution series was fit to a linear regression and used as a standard for calculating the estimated cell number for each well. For days 7 and 10, total estimated cell number represents the split-adjusted theoretical cell number.

In another data set the test system is MOLM-14. Put plainly: Cell growth assay, MOLM-14 AML cell line. The class given is cell-based, human. In short, it runs like this:
(§2)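 Exponentially growing cells at 5,000-30,000 cells/well were added to serially diluted compound in triplicate (0.1% DMSO final). Cell number was estimated by CellTiter-Glo luminescence against a linear standard curve from a dilution series of the vehicle control. Day 7 and 10 counts are split-adjusted theoretical cell numbers.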

Data set [2] in a line: Liver microsome metabolic stability assay. Format: in vitro ADME. The following applies: 1 micromolar, 0.5 mg/ml microsomal protein. The method, then: Test compounds were incubated at 37° C. with liver microsomes pooled from multiple donors at 1 micromolar in the presence of a NADPII regenerating system at 0.5 mg/ml microsomal protein. At 0, 5, 10, 20, 30, and 60 minutes, samples were removed, and mixed with cold acetonitrile containing an internal standard. After protein separation, samples were analyzed by LC/MS/MS for disappearance of the test compound using the ratio of peak area of analyte to internal standard. From the values, the microsome clearance was calculated. Species used were human, Sprague Dawley rat, beagle dog, and CD-1 mouse.
In general terms: Liver microsomes are vesicles of endoplasmic reticulum, rich in cytochrome P450 enzymes.

For a further data set, the system named is MV4;11. Put plainly: Cell growth assay, MV4;11 AML cell line. The class given is cell-based, human. In short, it runs like this: as §2
Another data set relates to AML cells. In words: Comparison with cortistatin A: AML cell growth inhibition and CDK8 kinase inhibition. Format: cell-based, human. The following applies: more potent than cortistatin A. The method, then: as §1, with “The control well dilution series was fit to a linear regression and used as a standard for calculating the estimated cell number for each well. For days 7 and 10, total estimated cell number represents the split-adjusted theoretical cell number.” left out

The nature of data set [3]: Liver microsome assay, metabolite formation. The class given is in vitro ADME, human. The following applies: metabolite is compound 24B.
A short description of data set [4]: Safety testing in healthy CD-1 mice. Format: in vivo. The following applies: 0.16 mg kg-1 once daily for 15 days, 2 hours after last dose. The method, then: (§3) Efficacy studies using the MV4;11 xenograft model were performed as previously described. See, e.g., Etchin et al., Leukemia (2013) 27, 66-74. Briefly, 2 million MV4;11 mCLP cells were introduced into 7-week-old female NOD-SCID-IL2Rcγ^null (NSG) mice (The Jackson Laboratory) via tail vein injection. The tumor burden was assessed by bioluminescence imaging (BLI) using an IVIS Spectrum system (Caliper Life Sciences). […] At 30 days post-treatment start date, 3 mice per group were sacrificed and blood counts were obtained using Hemavet 950 F instrument (Drew Scientific) and spleen, femur, and peripheral blood cells were collected and analyzed by flow cytometry (LSR Fortessa, BD Biosciences). The mice and a portion of the spleen were also preserved in bouins for histopathology. Mice were sectioned, paraffin-embedded and stained with hematoxylin and eosin. Survival of the drug-treated mice was measured as the time from initiation of therapy until moribund state. Survival benefit was assessed by Kaplan-Meier analysis. […] 2 h after the last dose, the mice were sacrificed, blood counts were obtained, blood chemistry was analyzed and the mice were fixed with bouins for histopathology. […] Once tumors reached an average size of 80-120 mm^3, the mice were treated with vehicle or 0.16 mg kg^−1 daily for the duration of the study.

Data set [5] in a line: Pharmacokinetic study of cortistatin A in CD-1 mice. The class given is in vivo, CD-1 mice. The following applies: for Cmax: mouse, in vivo, ip.
The subject of data set [6] is SET-2 subcutaneous xenograft. Put plainly: SET-2 subcutaneous xenograft model. The class given is in vivo, SCID Beige mice. The conditions noted are these: 0.16 mg kg-1 daily, n=10, P<0.001. The method, then: as §3
Data set [7] relates to STAT1 pS727 (CDK8 module kinase activity) in HepG2 cells. Put plainly: IFN-γ-stimulated STAT1 S727 phosphorylation, western blot. The class given is cell-based, human. The following applies: 1 hour compound then 1 hour IFN-γ; STAT1 pY701 and total STAT1 unaltered. The method, then:
CDK8 has been reported to […] interferon gamma-stimulated phosphorylation of STAT1 S727. See, e.g., Bancerek et al., Immunity (2013) 38:250-262. […] The cells were lysed and probed by western blot.
(§4) For STAT1 studies, MOLM-14 cells were treated with vehicle (0.1% DMSO) or compound for 1 h followed by the addition of IFNγ (Life Technologies, PHC4031) for 1 h. Cells were then collected, washed twice with cold PBS and snap frozen in liquid nitrogen. For all Western blotting, whole-cell lysates were prepared in RPA buffer (Sigma-Aldrich, R0278) with phosphatase and protease inhibitor additives (Sigma-Aldrich, P8340, P0044, P5762) and protein concentration was determined by BCA assay (Thermo Scientific, 23225). RIPA extracts were resolved by denaturing polyacrylamide gel electrophoresis (Life Technologies, NuPAGE) and transferred to PVDF membrane (Millipore) using the Mini Trans-Blot system (BioRad). The membranes were probed as recommended by the antibody manufacturers and proteins detected by chemiluminescence using horseradish peroxidase-conjugated secondary antibodies. For SMAD2/3 studies, HaCaT cells were treated as described for STAT1 with the addition of TGFβ1 (R&D Systems) in place of IFNγ.

The next data set has as its target Wnt/beta-catenin pathway. Put plainly: Wnt/beta-catenin reporter assay (SuperTOPflash luciferase, HEK293STF). The following applies: 24 hour treatment with Wnt3A or 10 μM azakenpaullone; read-out: IC50, inhibition of luciferase expression. The class given is cell-based. The protocol: Exponentially growing HEK293STF were plated in triplicate in 96-well plates at a density of 5,000 cells/well in 75 μL. […] Additional triplicate control wells on each plate had media without cells or cells without azakenpaullone. For experiments with Wnt3A conditioned media, after 24 h, compounds were serially diluted in Wnt3A conditioned media as 1× solutions (0.1% DMSO final). Old media was removed from the cells and replaced with the compound/Wnt3A-media. Additional triplicate control wells on each plate had media without cells or cells that were treated with L-conditioned media (no Wnt3A). After 24 h, the CellTiter-Fluor and Steady-Glo assays (Promega) were subsequently performed in series to determine viability and luminescence, respectively, in each well (measurements made on a SPECTRAmax M3, Molecular Devices). Graphs were made in Prism 5 (GraphPad Software, Inc.) with nonlinear regression fit to a sigmoidal dose-response curve (variable slope).

Data set [8] deals with SMAD2/3 phosphorylation in HaCat cells. In words: TGF-beta-stimulated SMAD2/3 phosphorylation, western blot. Format: cell-based. The conditions noted are these: 1 hour compound then 1 hour TGF-beta. The protocol:
as §4

The subject of another data set is BCL2L11 expression. In words: BCL2L11 mRNA levels in MV4;11 and MOLM-14 cells. The class given is cell-based, human. The conditions noted are these: 24 h treatment.
Data set [9] has as its system MPLW515L-transduced bone marrow. In words: Murine model of primary myelofibrosis (MPLW515L). The class given is in vivo, mice.
For a further data set, the system named is MV4;11 AML cells. In words: MV4;11 disseminated leukemia mouse model of AML. The class given is in vivo, NOD-SCID-IL2Rcγnull (NSG) mice. The following applies: 0.05 and 0.16 mg/kg once daily for 15 days. The method, then: as §3
Where [10] appears, read: Homo sapiens, MOLM-14, 240 h, day 10, cells passaged, fresh compound added on days 3 and 7, read-out: MOL M14 G150 day 10.
Setting [11] is: Homo sapiens, MV4-11, 240 h, day 10, cells passaged, fresh compound added on days 3 and 7, read-out: MV 4;11 GI50 day 10.

Read-outs that look alike come from different tables or passages of the source. Some results are limits rather than exact numbers.

On to `C[C@]12CC=C3C=C4CC[C@H]([N+](C)(C)[O-])CC45CC[C@]3(O5)[C@@H]1CC[C@@H]2c1ccc2ccncc2c1` [14BNO, 14B-N-Oxide], for which the “half-life and clearance rate in hepatocytes” value in data set [1] is “acceptable half-life and clearance rate”. In addition, the GI50 is greater than 1000 nM in the data set on K562 (Homo sapiens, K562, 240 h); 2 nM with MOLM-14 (setting [10]); 1 nM with MV4;11 (setting [11]). Also, the “metabolic stability in liver microsomes compared with 14B” value in data set [2] was “increased stability”; in [2] (listed as N-oxide of compound 14B), “improved stability”.

As to `CN(C)[C@H]1CCC2=CC3=CC[C@]4(C)[C@@H](c5ccc6ccncc6c5)CC[C@H]4C34CC[C@]2(C1)O4` [14B, β-dimethylamine], the “potency relative to cortistatin A in cell growth inhibition and in CDK8 kinase inhibition” value in the data set with AML cells is reported as “approximately 2 fold”. The GI50 with K562 (Homo sapiens, K562, 240 h) was greater than 1000 nM; in the data set on MOLM-14 (setting [10]), 3 nM; in the data set on MOLM-14 (Homo sapiens, MOLM-14, day 7, fresh compound added on day 3, read-out: MOL M14 GI50 day 7), 7 nM; with MV4;11 (setting [11]) it was 4 nM; with MV4;11 (Homo sapiens, MV4-11, day 7, fresh compound added on day 3, read-out: MV4;11 GI50 day 7), 8 nM. In addition, the “metabolism in human liver microsomes” value in [3] is “undergoes N-monodemethylation at C3”.

Regarding cortistatin A [CA], the “complete blood count (CBC) vs vehicle” value in [4] is “no significant differences”. The “calculated T1/2” value in [5] (10 mg/kg IP in 10% DMSO/phosphate buffered saline pH6, male CD-1 mice) was 6.06 h. The Cmax in data set [5] (1 mg/kg) stood at 762 nM; in data set [5] (10 mg/kg, pH 6), 1400 nM. Further, in [5] (single IP injection 1 mg/kg in 20% HPCD, male CD-1 mice), the “calculated T1/2 between 0.5-2 h” value is 33 min. Besides, the GI50 in the data set with K562 is greater than 1000 nM; in the data set on MOLM-14 (day 7, fresh compound added on day 3, read-out: MOL M14 GI50 day 7), 9 nM; in the data set with MOLM-14 (day 10, cells passaged, fresh compound added on days 3 and 7, read-out: MOL M14 G150 day 10) it was 5 nM; in the data set on MV4;11 (day 7, fresh compound added on day 3, read-out: MV4;11 GI50 day 7), 9 nM; with MV4;11 (day 10, cells passaged, fresh compound added on days 3 and 7, read-out: MV 4;11 GI50 day 10) it was 4 nM. This compound displayed a tumor growth inhibition in data set [6] of 68%. The “inhibition of IFN-γ-stimulated increase in STAT1 pS727” value in data set [7] was “potently inhibited”. Also, the IC50 at Wnt/beta-catenin pathway amounted to 1.5 nM. In data set [8], the “TGF-beta-stimulated SMAD2/3 phosphorylation” value was “dose-dependently inhibited”. The “mRNA levels of BCL2L11” value with BCL2L11 expression was “dose-dependently increases”. For the same compound, the spleen weights entry in data set [9] (0.31 mg/kg and 0.62 mg/kg i.p. once daily, after 6 doses) is recorded as “significant reduction”. The “allele burden (GFP percentage in peripheral blood)” value in data set [9] (after 4 doses of daily treatment) was “significant reduction”. In the data set on MV4;11 AML cells, the “efficacy (bioluminescence, survival, spleen and bone marrow burden)” value is on record as “effective”. In addition, the mean body weight result in the data set on MV4;11 AML cells (n=11) is given as “did not decrease”.
